Experimental data as given in patent US20090324708A1, “COMPOUND HAVING INHIBITORY ACTIVITY ON A RHO-GTPASE CELL PROTEIN, A PROCESS FOR OBTAINING THE SAME, PHARMACEUTICAL COMPOSITIONS COMPRISING THEREOF AND A METHOD FOR THE TREATMENT OF RHO-GTPASE CELL PROTEIN-MEDIATED CONDITION” (Universidad Nacional De Quilmes, priority 2006, published 2009).
Marks after values point to notes of the source that are not given here.

Assays:
Type in all cases: cell-based, mouse
[1] = test system: breast carcinoma F3II cells; assay: Monolayer wound assay of tumor cell migration; settings: for No of migrating cells: overnight, MEM with 10% FBS
Description: The present assay consists in the determination of the antimigration effect of the selected compounds on the breast carcinoma cells migration. Cell motility is a key process in the invasion and tumor metastasis processes and it is closely regulated by the Rho-GTPases family, particularly by Rac.
Tumor cell migration in vitro was measured by the “monolayer wound” assay described previously (Alonso D F, Farias E F, Urtreger A, Ladeda V, Vidal M C and Bal de Kier Joffé E: Characterization of F3II, a mammary sarcomatoid carcinoma cell line originated from a mouse adenocarcinoma. J. Surgh. Oncol 1996, 62: 288-297). 0.5 mm width lines were made in confluent monolayers. After washing with PBS, the tumor cells were incubated overnight in MEM with 10% FBS and the monolayers were fixed and stained with methylene blue. The number of cells that moved along the free space were counted by using a 0.36 mm^2 graded grid, using a magnification of 100×, in 3 independent fields per each line.
Doses from 1 to 50 μM of the compounds were assessed, thereby finding a saturation of the antimigration effect in the 3 compounds studied, starting from 10 μM, obtaining an approximate inhibition of 30 to 50% respectively.

[2] = test system: breast carcinoma F3II cells; assay: Antiproliferative effect on growing F3II cells (toluidine test); settings: 10% fetal bovine serum
From the text: The antiproliferative effect of the above mentioned compounds on breast carcinoma F3II cells is disclosed in the present example. The synthesized compounds are purine nucleoside derivatives which present chemical modifications in either the ribose and/or in the base. These modifications mainly consisted in acetylations of positions 2′-3′ of the ribose, varying the number of carbon atoms of the acyl substituents in position 5′. […] The cell growth was estimated by toluidine test, for which the cell monolayers were fixed with formalin (Formol 10%) and stained with toluidine blue 0.5%. Subsequently, the stained cells were thoroughly washed with PBS and solubilized with 1% SDS. Finally, the number of cells was estimated by measuring the absorbance values at 595 nm. The IC50 values of the compounds Nucl 1, Nucl 4 and Nucl 5, both for cells in the exponential growth phase and for quiescent cells, are depicted in Table 2.

[3] = test system: breast carcinoma F3II cells; assay: Effect on quiescent F3II cells / cytotoxicity (toluidine staining and MTT assay); settings: absence of FBS; for cytotoxic effect: 100 μM, 24 hours, semiconfluent monolayers, toluidine and MTT assay; for IC50: Quiescent Cells, F3II, 24 hs
Description: The antiproliferative effect of the above mentioned compounds on breast carcinoma F3II cells is disclosed in the present example. The synthesized compounds are purine nucleoside derivatives which present chemical modifications in either the ribose and/or in the base. These modifications mainly consisted in acetylations of positions 2′-3′ of the ribose, varying the number of carbon atoms of the acyl substituents in position 5′. The cells were treated for 72 hours in the presence of fetal bovine serum 10% with different doses of the compounds, with the aim of determining the inhibitory concentration 50% (IC50). The cell growth was estimated by toluidine test, for which the cell monolayers were fixed with formalin (Formol 10%) and stained with toluidine blue 0.5%. Subsequently, the stained cells were thoroughly washed with PBS and solubilized with 1% SDS. Finally, the number of cells was estimated by measuring the absorbance values at 595 nm. The IC50 values of the compounds Nucl 1, Nucl 4 and Nucl 5, both for cells in the exponential growth phase and for quiescent cells, are depicted in Table 2.
In addition, the effect of the analogs showing antiproliferative effect on quiescent cells, was studied in order to discriminate between an antitumoral effect and an unspecific cytotoxic effect. For this purpose, the semiconfluent cell monolayers were incubated for 24 hours in the absence of FBS with the analogs Nucl 1, Nucl 4 and Nucl 5, at a concentration of 100 μM. Subsequently, the cells were fixed and stained with toluidine in order to determine the number of cells. Simultaneously, the cytotoxic effect was determined by the MTT assay.

| SMILES | No of migrating cells ([1]; 10 μM) | inhibition at 10 µM ([1]; Mus musculus) [%] | IC50 ([2]; Mus musculus, 48 hs, read-out: IC50 48 hs) [µM] | IC50 ([2]; Mus musculus, 72 hs, read-out: IC50 72 hs) [µM] | cytotoxic effect [3] | IC50 ([3]; Mus musculus) [µM] | Inhibition % (cell migration) ([1]; 10 μM) [%] | IC50 ([2]; 48 hs, read-out: IC50 48 hs) [µM] | IC50 ([2]; 72 hs, read-out: IC50 72 hs) [µM] | IC50 [3] [µM] |
| --- | --- | --- | --- | --- | --- | --- | --- | --- | --- | --- |
| CC(=O)OC[C@H]1O[C@@H](n2cnc3c(=O)[nH]c(N)nc32)[C@H](OC(C)=O)[C@@H]1OC(C)=O [Nucl 1, 2′,3′,5′-tri-O-acetyl-guanosine] | 97.7* | 32.2 | 26 | 68 | In none of the cases a cytotoxic effect was observed | > 100 |  |  |  |  |
| CC(=O)OC[C@H]1O[C@@H](n2cnc3c(Cl)ncnc32)[C@H](OC(C)=O)[C@@H]1OC(C)=O [Nucl 4, 6-chloro-2′,3′,5′-tri-O-acetyl-purine riboside] | 85.5** |  |  |  | In none of the cases a cytotoxic effect was observed |  | 40.6 | 60 | 56 | > 100 |
